Literature values, collected in patent publication US20110092493A1, “Dose-controlled transdermal promethazine compositions and methods of use” (priority 2008, published 2011).
Where a name gives a salt, the structure may show the parent alone. Read-outs that look alike come from different tables or passages of the source.

Experiments:
[1] = not given; remark: listed apart in the source
[2] = oral administration
[3] = not given; remark: listed apart in the source
[4] = 50 mg applied to the wrist in topical pluronic lecithin organogel, 15 healthy volunteers
[5] = following intramuscular injection
[6] = both 50 mg suppository treatments (generic, brand-name) vs oral syrup (50 mg)
[7] = overall, most common adverse events

| differences in AUC0-24 (50 mg suppository treatments vs oral syrup (50 mg)) | maximum promethazine concentration compared with oral syrup [6] | time to maximum promethazine concentration compared with oral syrup [6] | coefficient of variation for the area under the plasma concentration-versus-time curve (AUC) ([1]; 50 mg suppository) | mean AUC from 0 to 24 hours (AUC0-24) ([1]; 50 mg suppository) | coefficient of variation for the area under the plasma concentration-versus-time curve (AUC) ([1]; oral syrup (50 mg)) | mean AUC from 0 to 24 hours (AUC0-24) ([1]; oral syrup (50 mg)) | fraction of dose absorbed ([2]; on average) | absolute bioavailability ([2]; limited by first-pass clearance) | drowsiness, % of subjects [4] | SMILES | adverse event: somnolence ([3]; 25 mg suppository) | adverse event: somnolence ([3]; 50 mg oral) | adverse event: somnolence ([3]; 50 mg suppository) | adverse event: headache [3, 7] | adverse event: somnolence [3, 7] | sedation, % of subjects [4] | plasma levels associated with adverse effects [5] |
| --- | --- | --- | --- | --- | --- | --- | --- | --- | --- | --- | --- | --- | --- | --- | --- | --- | --- |
| no significant differences | lower | longer |  |  |  |  |  |  |  | CC(CN1c2ccccc2Sc2ccccc21)N(C)C (centres unmarked) [promethazine hydrochloride] |  |  |  |  |  |  |  |
|  |  |  | greater than 84% | 0.168 µg·h/mL | greater than 84% | 0.268 µg·h/mL | 88% | 25% | 73% | CC(CN1c2ccccc2Sc2ccccc21)N(C)C (centres unmarked) [promethazine] | 5% | 22% | 17% | 28% | 35% | 50% | 0.048 µg/mL |
